What was measured:
ISC-enriched organoids [1] = experiment: Primary screen, 384-well 2.5-D organoid differentiation (ENR+CD, 6 days): basal lysozyme secretion (LYZ.NS); type: cell-based, murine; details: for Dose.FC.LYZ.NS / Z.LYZ.NS: primary screen; for Dose.FC.LYZ.NS: ENR+CD 6 days, FC vs plate median; for Z.LYZ.NS: standard z score of FC
From the text: (§1) High-throughput screening.

ISC-enriched organoids [2] = experiment: Primary screen, 384-well 2.5-D organoid differentiation (ENR+CD, 6 days): carbachol-induced lysozyme secretion (LYZ.S); type: cell-based, murine; details: for Dose.FC.LYZ.S: primary screen, ENR+CD 6 days, FC vs plate median
From the text: as §1

ISC-enriched organoids [3] = experiment: Primary screen, 384-well 2.5-D organoid differentiation (ENR+CD, 6 days, Target Selective Inhibitor Library, vs whole-plate median): ATP (CellTiter-Glo 3D, CTG); details: for Dose.FC.CTG / Z.CTG: primary screen; for Dose.FC.CTG: ENR+CD 6 days, FC vs plate median; for Z.CTG: standard z score of FC
[4] = dose 0.08 uM (1st of 4 lines per treatment; dose not printed in this part)
[5] = dose 0.40 uM (2nd of 4 lines per treatment; dose not printed in this part)
[6] = dose 2.00 uM (3rd of 4 lines per treatment; dose not printed in this part)
[7] = dose 10.00 uM (4th of 4 lines per treatment; dose not printed in this part)

Compound	SSMD.LYZ.NS_Rep (strictly standardized mean difference) (ISC-enriched organoids [1]; [4])	SSMD.LYZ.NS_Rep (strictly standardized mean difference) (ISC-enriched organoids [1]; [5])	SSMD.LYZ.NS_Rep (strictly standardized mean difference) (ISC-enriched organoids [1]; [6])	SSMD.LYZ.NS_Rep (strictly standardized mean difference) (ISC-enriched organoids [1]; [7])	Dose.FC.LYZ.NS (ISC-enriched organoids [1]; dose 0.08 uM)	Z.LYZ.NS (ISC-enriched organoids [1]; dose 0.08 uM)	Dose.FC.LYZ.NS (ISC-enriched organoids [1]; dose 0.40 uM)	Z.LYZ.NS (ISC-enriched organoids [1]; dose 0.40 uM)	Dose.FC.LYZ.NS (ISC-enriched organoids [1]; dose 2.00 uM)	Z.LYZ.NS (ISC-enriched organoids [1]; dose 2.00 uM)	Dose.FC.LYZ.NS (ISC-enriched organoids [1]; dose 10.00 uM)	Z.LYZ.NS (ISC-enriched organoids [1]; dose 10.00 uM)	SSMD.LYZ.S_Rep (strictly standardized mean difference) (ISC-enriched organoids [2]; [4])	Z.LYZ.S (standard z score) (ISC-enriched organoids [2]; [4])	SSMD.LYZ.S_Rep (strictly standardized mean difference) (ISC-enriched organoids [2]; [5])	Z.LYZ.S (standard z score) (ISC-enriched organoids [2]; [5])	SSMD.LYZ.S_Rep (strictly standardized mean difference) (ISC-enriched organoids [2]; [6])	Z.LYZ.S (standard z score) (ISC-enriched organoids [2]; [6])	SSMD.LYZ.S_Rep (strictly standardized mean difference) (ISC-enriched organoids [2]; [7])	Z.LYZ.S (standard z score) (ISC-enriched organoids [2]; [7])	other results
O=C(O)c1ccc(N2C(=O)/C(=C\c3ccc(-c4ccc([N+](=O)[O-])cc4)o3)C=C2c2ccccc2)cc1 [4E1RCat]	0.883	−0.121	0.437	0.053	0.100 log 2 fold change	0.874	−0.018 log 2 fold change	−0.154	0.151 log 2 fold change	1.316	0.007 log 2 fold change	0.062	0.712	0.690	0.185	0.247	0.311	0.316	0.321	0.530	Dose.FC.LYZ.S (ISC-enriched organoids [2]; dose 0.08 uM): 0.107 log 2 fold change; Dose.FC.LYZ.S (ISC-enriched organoids [2]; dose 0.40 uM): 0.038 log 2 fold change; Dose.FC.LYZ.S (ISC-enriched organoids [2]; dose 2.00 uM): 0.049 log 2 fold change; Dose.FC.LYZ.S (ISC-enriched organoids [2]; dose 10.00 uM): 0.082 log 2 fold change; SSMD.CTG_Rep (strictly standardized mean difference) (ISC-enriched organoids [3]; [4]): 0.790; SSMD.CTG_Rep (strictly standardized mean difference) (ISC-enriched organoids [3]; [5]): 0.559; SSMD.CTG_Rep (strictly standardized mean difference) (ISC-enriched organoids [3]; [6]): 0.022; SSMD.CTG_Rep (strictly standardized mean difference) (ISC-enriched organoids [3]; [7]): −0.026; Dose.FC.CTG (ISC-enriched organoids [3]; dose 0.08 uM): 0.246 log 2 fold change; Z.CTG (ISC-enriched organoids [3]; dose 0.08 uM): 0.587; Dose.FC.CTG (ISC-enriched organoids [3]; dose 0.40 uM): 0.362 log 2 fold change; Z.CTG (ISC-enriched organoids [3]; dose 0.40 uM): 0.864; Dose.FC.CTG (ISC-enriched organoids [3]; dose 2.00 uM): 0.006 log 2 fold change; Z.CTG (ISC-enriched organoids [3]; dose 2.00 uM): 0.015; Dose.FC.CTG (ISC-enriched organoids [3]; dose 10.00 uM): −0.011 log 2 fold change; Z.CTG (ISC-enriched organoids [3]; dose 10.00 uM): −0.026
CC(C)N(CC[C@H](c1ccccc1)c1cc(CO)ccc1O)C(C)C [5-hydroxymethyl Tolterodine (PNU 200577, 5-HMT, 5-HM)]	0.915	0.760	0.947	0.223	0.184 log 2 fold change	1.599	0.076 log 2 fold change	0.665	0.154 log 2 fold change	1.344	0.034 log 2 fold change	0.293	0.460	0.417	0.266	0.231	0.174	0.152	−0.042	−0.044	Dose.FC.LYZ.S (ISC-enriched organoids [2]; dose 0.08 uM): 0.065 log 2 fold change; Dose.FC.LYZ.S (ISC-enriched organoids [2]; dose 0.40 uM): 0.036 log 2 fold change; Dose.FC.LYZ.S (ISC-enriched organoids [2]; dose 2.00 uM): 0.023 log 2 fold change; Dose.FC.LYZ.S (ISC-enriched organoids [2]; dose 10.00 uM): −0.007 log 2 fold change; SSMD.CTG_Rep (strictly standardized mean difference) (ISC-enriched organoids [3]; [4]): −0.118; SSMD.CTG_Rep (strictly standardized mean difference) (ISC-enriched organoids [3]; [5]): 0.291; SSMD.CTG_Rep (strictly standardized mean difference) (ISC-enriched organoids [3]; [6]): 0.114; SSMD.CTG_Rep (strictly standardized mean difference) (ISC-enriched organoids [3]; [7]): 0.061; Dose.FC.CTG (ISC-enriched organoids [3]; dose 0.08 uM): −0.062 log 2 fold change; Z.CTG (ISC-enriched organoids [3]; dose 0.08 uM): −0.149; Dose.FC.CTG (ISC-enriched organoids [3]; dose 0.40 uM): 0.087 log 2 fold change; Z.CTG (ISC-enriched organoids [3]; dose 0.40 uM): 0.207; Dose.FC.CTG (ISC-enriched organoids [3]; dose 2.00 uM): 0.034 log 2 fold change; Z.CTG (ISC-enriched organoids [3]; dose 2.00 uM): 0.082; Dose.FC.CTG (ISC-enriched organoids [3]; dose 10.00 uM): 0.017 log 2 fold change; Z.CTG (ISC-enriched organoids [3]; dose 10.00 uM): 0.040

Source: patent US20230398130A1, “METHODS AND COMPOSITIONS FOR DIFFERENTIATING STEM CELLS” (Massachusetts Institute of Technology, priority 2020, published 2023)
